Our source for the TGI values is PubChem BioAssay (NCI).

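Growth conditions: 96-well plates. Treatment: test compound, 48 hours, 5 concentrations. Analysis: linear interpolation between bracketing concentrations; unreached endpoints set to highest concentration. TGI denotes the concentration required for complete inhibition of growth.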

Assay in all cases: NCI anticancer screen, dose series, 48 h
The subject of assay [1] is KM12 colon.
For assay [2], the system named is T-47D breast.
Assay [3] concerns OVCAR-4 ovarian.
Assay [4] concerns UACC-62 melanoma.
The test system of assay [5] is MDA-MB-435.
The test system of assay [6] is SF-539 CNS.
The test system of assay [7] is U251 CNS.
Assay [8] concerns RXF 393 renal.
Assay [9] relates to HOP-92 NSCLC.
Assay [10] has as its system HOP-62 NSCLC.
Assay [11] relates to SF-295 CNS.
Assay [12] has as its system NCI-H23 lung.
The subject of assay [13] is COLO 205 colon.
Assay [14] relates to MOLT-4 leukemia.

On to `O=[N+]([O-])c1ccc(NC(=S)Nc2ccccn2)cc1`, for which the TGI is greater than 55.6 µM in [1]; greater than 100 µM in assay [2]; greater than 100 µM in [3]; greater than 100 µM in [4]; greater than 100 µM in assay [5]; 55.5 µM in assay [6]. The TGI in [7] was greater than 100 µM; in assay [8], 17.8 µM; in [9], greater than 100 µM; in [10] it was 44.8 µM; in assay [11] it was greater than 100 µM; in [12], greater than 100 µM. The TGI in assay [13] is greater than 94.5 µM; in [14] it was greater than 100 µM.
For the compound `CCOC(=O)C(=CNC(=S)Nc1c(CC)cccc1CC)C(=O)OCC`, the TGI in assay [1], in assay [2], in [3], in [4], in assay [5] and in assay [6] was greater than 100 µM in each case. The TGI in assay [7], in assay [8], in [9], in assay [10], in assay [11] and in assay [12] was greater than 100 µM in each case. For the same compound, the TGI in [13] and in [14] was greater than 100 µM in each case.
`CCN(CC)CCC(=O)c1ccc(Oc2ccccc2)cc1`: the TGI was found to be 27.4 µM in assay [1]; 42 µM in assay [2]; 76.9 µM in assay [3]; 29.3 µM in [4]; 40.2 µM in assay [5]; 34 µM in [6]. Besides, the TGI is 32.3 µM in assay [7]; 36.4 µM in assay [8]; 30.1 µM in assay [9]; 77.4 µM in assay [10]; greater than 100 µM in assay [11]; 78.5 µM in [12]. Besides, the TGI came to 32.1 µM in [13] and 48.4 µM in assay [14].
As to `CC(C)CCCC(C)[C@H]1CC[C@H]2[C@@H]3CC[C@H]4C[C@@H](CCC=C(c5cc(Cl)c(O)c(C(=O)O)c5)c5cc(Cl)c(O)c(C(=O)O)c5)CC[C@]4(C)[C@H]3CC[C@]12C` (stereo partly specified) (tested in a mixture with another compound), the TGI in assay [1], in assay [2], in assay [3], in assay [4], in assay [5] and in [6] was greater than 50 µM throughout. For the same compound, the TGI in assay [7], in assay [8], in assay [9], in assay [10], in assay [11] and in assay [12] was greater than 50 µM throughout. Also, the TGI in assay [13] and in assay [14] was greater than 50 µM throughout.
With `Nc1cccc(C#Cc2cccc(C#Cc3cccc(N)n3)n2)n1`, the TGI in assay [1], in assay [2], in [3], in [4], in assay [5] and in [6] was greater than 100 µM each time. Further, the TGI in [7], in [8], in [9], in [10], in assay [11] and in [12] was greater than 100 µM in each case. The TGI in assay [13] and in assay [14] was greater than 100 µM each time.
As to `CCCCc1ccc(Nc2nc(N)c3ncn(COCCO)c3n2)cc1`, the TGI in assay [1] was greater than 100 µM; in assay [2], 91.6 µM; in [3], greater than 100 µM; in assay [4], 38.5 µM; in [5], 51.2 µM; in assay [6] it was 60.6 µM. Further, the TGI was 66.4 µM in [7]; 98.2 µM in assay [8]; 45.1 µM in [9]; 45.1 µM in assay [10]; 41.2 µM in assay [11]; 56.3 µM in assay [12]. Moreover, the values for the TGI in [13] and in assay [14] were 43.8 µM and greater than 100 µM, respectively.
`CCSC(=O)/C=C1\CN(C(=O)OC(C)(C)C)C1C(=O)OC(C)(C)C` (stereo unspecified): the TGI was 12.3 µM in assay [1]; 13.4 µM in assay [2]; 7.44 µM in [3]; 10.6 µM in [4]; 8.63 µM in [5]; 7.51 µM in [6]. Moreover, the TGI in [7] is 19.2 µM; in assay [8], 3.76 µM; in assay [9] it was 8.4 µM; in [10] it was 28.9 µM; in assay [11] it was 25 µM; in [12], 8.7 µM. In addition, the values for the TGI in assay [13] and in [14] were 5.48 µM and 4.18 µM, respectively.
Consider `O=C(NCCN1CCCC1)c1cn2c(ccc3sc4ccccc4c(=O)c32)n1`, for which the TGI was 37.5 µM in assay [1]; 38.1 µM in assay [2]; 26.3 µM in assay [3]; 31.3 µM in [4]; greater than 56.6 µM in assay [5]; 30.2 µM in [6]. The TGI in assay [7] is greater than 51.7 µM; in [8] it was 24.6 µM; in [9] it was 30.1 µM; in [10], 25.8 µM; in assay [11], 27.1 µM; in [12], 32.4 µM. The TGI in assay [13] is 26.7 µM; in assay [14], 7.42 µM.
For the compound `Nc1ncc(CN2CCOCC2)c(-c2ccccc2O)n1`, the TGI in assay [1], in assay [2], in [3], in assay [4], in [5] and in assay [6] was greater than 100 µM each time. Besides, the TGI in assay [7], in assay [8], in [9], in [10], in assay [11] and in [12] was greater than 100 µM in each case. Also, the TGI in assay [13] and in [14] was greater than 100 µM in each case.
Regarding `Clc1ccc(-c2nc3ccc(C45CC6CC(CC(C6)C4)C5)cc3[nH]2)cc1`, the TGI in assay [1], in assay [2], in [3], in [4], in assay [5] and in assay [6] was greater than 100 µM throughout. The TGI in assay [7] is greater than 100 µM; in [8] it was greater than 100 µM; in [9] it was greater than 95.3 µM; in assay [10], greater than 77 µM; in assay [11] it was greater than 100 µM; in assay [12], greater than 100 µM. For the same compound, the TGI was 24.3 µM in assay [13] and greater than 100 µM in [14].
On to `C1=NCCNCCN=Cc2ccccc2OCc2cccc(n2)COc2ccccc21`, for which the TGI was greater than 62.2 µM in assay [1]; greater than 100 µM in assay [2]; 99.7 µM in assay [3]; greater than 64.3 µM in [4]; greater than 68.7 µM in assay [5]; 11.1 µM in [6]. In addition, the TGI in assay [7] was greater than 39.7 µM; in assay [8], greater than 100 µM; in [9] it was greater than 100 µM; in assay [10] it was 54.8 µM; in assay [11] it was greater than 51.4 µM; in assay [12], greater than 52.9 µM. In addition, the TGI in [13] is greater than 100 µM; in assay [14], greater than 82 µM.
`CC(C)c1nc2c(Cl)c3ncccc3cc2[nH]c1=O`: the TGI in [1], in assay [2], in assay [3], in [4], in [5] and in assay [6] was greater than 100 µM in each case. The TGI in [7], in assay [8], in [9], in assay [10], in assay [11] and in assay [12] was greater than 100 µM throughout. Besides, the TGI in [13] and in [14] was greater than 100 µM throughout.
`CN(C)/C=C/c1nnnn1-c1ccc(I)cc1`: the TGI in [1] is 36.7 µM; in assay [2], 44 µM; in assay [3], 66 µM; in assay [4] it was 31.1 µM; in [5], 60.7 µM; in assay [6] it was 42.5 µM. The TGI in assay [7] is 34.9 µM; in assay [8] it was 59.6 µM; in [9], 34.7 µM; in [10], greater than 100 µM; in assay [11], greater than 100 µM; in [12] it was 56.1 µM. The values for the TGI in assay [13] and in assay [14] were greater than 100 µM and 34.1 µM, respectively.
As to `COC(=O)/C=C(/C(=O)OC)c1c(C)cc2c(C)cc(C)cc(C)c1-2`, the TGI in assay [1] was greater than 58.2 µM; in assay [2] it was greater than 100 µM; in assay [3] it was greater than 100 µM; in [4] it was greater than 66.5 µM; in [5], greater than 30.5 µM; in [6], 26.7 µM. In addition, the TGI in assay [7] is 25.5 µM; in assay [8] it was 49.2 µM; in assay [9] it was greater than 100 µM; in assay [10] it was 37.9 µM; in assay [11], 29.3 µM; in assay [12], greater than 81.1 µM. In addition, the TGI in [13] is 22.4 µM; in assay [14], greater than 100 µM.
Regarding `COc1ccc(/C=C2\CN(C)CC3C2=NC(=S)NC3c2ccc(OC)cc2)cc1` (stereo unspecified), the TGI in assay [1] is greater than 65.8 µM; in assay [2], greater than 29.9 µM; in assay [3] it was greater than 70.8 µM; in assay [4], greater than 100 µM; in assay [5] it was 7.86 µM; in [6], 59.5 µM. Also, the TGI is greater than 52.6 µM in assay [7]; 7.49 µM in assay [8]; 94.3 µM in [9]; greater than 100 µM in [10]; greater than 75.8 µM in [11]; greater than 94.1 µM in assay [12]. Further, the TGI is greater than 39.3 µM in assay [13] and greater than 81.1 µM in [14].
As to `Cc1cc(-c2nc3cc(O)ccc3s2)ccc1N`, the TGI in assay [1] is 66.6 µM; in assay [2] it was 72.3 µM; in assay [3], greater than 100 µM; in assay [4], 44.2 µM; in assay [5] it was greater than 100 µM; in [6], 49.3 µM. Further, the TGI in [7] was greater than 100 µM; in assay [8], greater than 100 µM; in [9], greater than 100 µM; in assay [10] it was greater than 100 µM; in [11], 73.4 µM; in assay [12], greater than 100 µM. Further, the TGI in [13] is 49.8 µM; in assay [14], greater than 100 µM.
With `CO/N=C(/C(=O)OC)c1ccccc1COc1cccc(C(F)(F)F)c1`, the TGI in [1] was 92 µM; in [2] it was 64.7 µM; in [3] it was greater than 100 µM; in [4] it was greater than 100 µM; in [5], greater than 100 µM; in assay [6] it was greater than 100 µM. Also, the TGI in assay [7] was greater than 100 µM; in [8], 98 µM; in [9], greater than 100 µM; in [10], greater than 100 µM; in [11] it was greater than 100 µM; in [12] it was greater than 100 µM. Moreover, the TGI in [13] is greater than 100 µM; in [14], 34.4 µM.
As for `COc1cc(-c2oc(C=Nc3ccccc3)c([N+](=O)[O-])c2-c2ccc(O)c(OC)c2)ccc1O`, the TGI is greater than 85.4 µM in assay [1]; greater than 100 µM in assay [2]; 67.8 µM in assay [3]; 47.2 µM in assay [4]; greater than 85.9 µM in [5]; 42.9 µM in [6]. Besides, the TGI was 66.1 µM in assay [7]; 51.1 µM in assay [8]; greater than 51.9 µM in assay [9]; greater than 100 µM in assay [10]; greater than 95.7 µM in assay [11]; 33.9 µM in [12]. Further, the TGI in assay [13] was greater than 63.2 µM; in [14], greater than 84.7 µM.
As to `O=Cc1ccc(-c2cccc([N+](=O)[O-])c2)s1`, the TGI in assay [1], in assay [2], in assay [3], in [4], in assay [5] and in assay [6] was greater than 100 µM throughout. For the same compound, the TGI in assay [7], in assay [8], in [9], in [10], in assay [11] and in assay [12] was greater than 100 µM throughout. In addition, the TGI in [13] and in [14] was greater than 100 µM throughout.
